Experiments:
Format in all cases: biochemical
[1] = molecular target: KAT6A Full length enzyme (Homo sapiens (Human), UniProt Q92794); assay: KAT6A assay (SAMDI-MS acetylation of H3 1-21 peptide); conditions: Morrison equation fit; replicate number in parentheses; read-out: KAT6A Ki (nM) (replicate number)
[2] = molecular target: KAT7+JADE1+EAF6+ING5 4 protein complex (Homo sapiens (Human), UniProt O95251); assay: KAT7 JADE1 assay (SAMDI-MS acetylation of H3 1-21 peptide); conditions: Morrison equation fit; replicate number in parentheses; read-out: KAT7 JADE1 Ki (nM) (replicate number)
[3] = molecular target: KAT8 Full length enzyme (Homo sapiens (Human), UniProt Q9H7Z6); assay: KAT8 assay (SAMDI-MS acetylation of H3 1-21 peptide); conditions: Morrison equation fit; replicate number in parentheses; read-out: KAT8 Ki (nM) (replicate number)
[4] = molecular target: KAT5 Full length enzyme (Homo sapiens (Human), UniProt Q92993); assay: KAT5 assay (SAMDI-MS acetylation of H4 1-21 peptide); conditions: Morrison equation fit; replicate number in parentheses; read-out: KAT5 Ki (nM) (replicate number)
Chain of KAT5 Full length enzyme (Q92993 whole entry): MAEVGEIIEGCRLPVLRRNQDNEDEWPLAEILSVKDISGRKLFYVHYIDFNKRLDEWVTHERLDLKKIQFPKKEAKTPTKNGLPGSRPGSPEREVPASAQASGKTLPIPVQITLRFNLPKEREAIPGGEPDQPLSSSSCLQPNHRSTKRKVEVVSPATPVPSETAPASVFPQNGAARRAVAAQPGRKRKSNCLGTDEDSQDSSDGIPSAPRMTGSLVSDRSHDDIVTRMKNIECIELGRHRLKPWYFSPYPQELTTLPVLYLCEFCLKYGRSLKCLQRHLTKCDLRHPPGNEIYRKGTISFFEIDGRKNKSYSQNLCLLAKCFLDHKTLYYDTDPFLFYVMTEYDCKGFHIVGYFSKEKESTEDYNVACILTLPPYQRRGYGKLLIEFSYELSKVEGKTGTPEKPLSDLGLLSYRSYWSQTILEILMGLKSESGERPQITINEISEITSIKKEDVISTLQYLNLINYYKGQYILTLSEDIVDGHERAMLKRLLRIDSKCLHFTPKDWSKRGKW

Chain of KAT8 Full length enzyme (Q9H7Z6 whole entry): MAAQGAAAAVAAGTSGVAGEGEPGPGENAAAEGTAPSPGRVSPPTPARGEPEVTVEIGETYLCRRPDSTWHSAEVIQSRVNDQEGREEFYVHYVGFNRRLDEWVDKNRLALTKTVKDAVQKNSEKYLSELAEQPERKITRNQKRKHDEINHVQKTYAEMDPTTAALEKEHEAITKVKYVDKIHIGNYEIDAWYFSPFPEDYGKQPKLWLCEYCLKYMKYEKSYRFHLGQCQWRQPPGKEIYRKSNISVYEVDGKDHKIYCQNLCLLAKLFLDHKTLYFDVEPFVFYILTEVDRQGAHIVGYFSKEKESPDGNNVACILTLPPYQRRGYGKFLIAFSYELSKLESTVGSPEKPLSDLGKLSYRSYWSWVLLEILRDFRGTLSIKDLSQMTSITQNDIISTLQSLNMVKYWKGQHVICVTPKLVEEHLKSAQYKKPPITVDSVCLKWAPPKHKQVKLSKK
Chain of KAT6A Full length enzyme (Q92794 other isoform, or with tags, fused parts or gaps): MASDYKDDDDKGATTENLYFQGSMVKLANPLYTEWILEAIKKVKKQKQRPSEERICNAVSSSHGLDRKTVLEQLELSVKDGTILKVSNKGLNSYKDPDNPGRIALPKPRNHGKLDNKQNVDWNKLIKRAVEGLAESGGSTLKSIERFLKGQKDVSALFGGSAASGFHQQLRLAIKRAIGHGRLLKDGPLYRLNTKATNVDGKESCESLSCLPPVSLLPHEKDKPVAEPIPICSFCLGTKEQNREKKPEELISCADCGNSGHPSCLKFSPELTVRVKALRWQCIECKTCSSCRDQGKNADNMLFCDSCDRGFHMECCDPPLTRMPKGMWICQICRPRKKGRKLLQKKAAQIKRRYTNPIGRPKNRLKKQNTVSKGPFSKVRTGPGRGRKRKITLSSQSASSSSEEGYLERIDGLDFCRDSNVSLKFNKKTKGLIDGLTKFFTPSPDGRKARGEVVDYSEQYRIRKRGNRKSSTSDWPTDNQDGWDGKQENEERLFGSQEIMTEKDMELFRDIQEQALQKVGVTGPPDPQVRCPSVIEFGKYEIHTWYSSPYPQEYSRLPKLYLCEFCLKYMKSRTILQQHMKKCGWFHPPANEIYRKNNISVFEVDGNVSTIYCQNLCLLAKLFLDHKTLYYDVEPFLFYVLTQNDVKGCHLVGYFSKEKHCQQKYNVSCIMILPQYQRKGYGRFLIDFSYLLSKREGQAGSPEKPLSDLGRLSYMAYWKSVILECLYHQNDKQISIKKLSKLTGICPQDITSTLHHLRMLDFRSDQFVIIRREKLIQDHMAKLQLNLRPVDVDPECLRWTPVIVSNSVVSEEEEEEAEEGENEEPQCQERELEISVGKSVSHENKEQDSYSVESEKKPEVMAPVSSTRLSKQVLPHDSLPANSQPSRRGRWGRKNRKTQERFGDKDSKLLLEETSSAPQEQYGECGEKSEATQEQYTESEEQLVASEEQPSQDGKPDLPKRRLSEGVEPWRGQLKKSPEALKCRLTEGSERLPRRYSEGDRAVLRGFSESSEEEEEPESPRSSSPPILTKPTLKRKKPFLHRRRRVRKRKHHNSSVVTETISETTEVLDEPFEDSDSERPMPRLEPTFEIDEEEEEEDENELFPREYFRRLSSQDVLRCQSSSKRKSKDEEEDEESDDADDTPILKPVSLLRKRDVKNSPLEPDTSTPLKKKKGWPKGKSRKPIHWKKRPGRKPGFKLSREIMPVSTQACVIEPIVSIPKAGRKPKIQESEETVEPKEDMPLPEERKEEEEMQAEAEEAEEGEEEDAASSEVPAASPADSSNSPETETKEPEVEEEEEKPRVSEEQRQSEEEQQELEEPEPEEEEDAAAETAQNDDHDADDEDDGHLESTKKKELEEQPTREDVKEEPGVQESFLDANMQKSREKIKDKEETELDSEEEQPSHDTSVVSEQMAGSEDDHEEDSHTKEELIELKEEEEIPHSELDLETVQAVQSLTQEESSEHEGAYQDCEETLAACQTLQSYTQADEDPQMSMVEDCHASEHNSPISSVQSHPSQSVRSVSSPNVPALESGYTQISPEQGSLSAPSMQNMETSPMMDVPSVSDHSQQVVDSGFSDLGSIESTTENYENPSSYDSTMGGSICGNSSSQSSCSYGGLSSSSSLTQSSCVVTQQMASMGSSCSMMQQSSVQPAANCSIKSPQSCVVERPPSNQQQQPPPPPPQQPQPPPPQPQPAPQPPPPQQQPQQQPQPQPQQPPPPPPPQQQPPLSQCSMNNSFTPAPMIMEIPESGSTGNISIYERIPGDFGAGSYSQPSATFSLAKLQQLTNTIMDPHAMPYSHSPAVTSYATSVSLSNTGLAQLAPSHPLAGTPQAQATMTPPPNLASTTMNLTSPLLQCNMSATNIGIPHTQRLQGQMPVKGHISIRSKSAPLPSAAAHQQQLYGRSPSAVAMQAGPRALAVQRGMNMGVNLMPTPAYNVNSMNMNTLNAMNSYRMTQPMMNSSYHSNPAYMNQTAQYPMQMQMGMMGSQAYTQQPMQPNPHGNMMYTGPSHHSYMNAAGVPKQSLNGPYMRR

| Structure (SMILES) | Ki [1] | Ki [2] | Ki [3] | Ki [4] |
| --- | --- | --- | --- | --- |
| COc1cc2c(NS(=O)(=O)c3c(OC)cccc3OC)noc2cc1Nc1cc(C(C)CCO)[nH]n1 (stereo not shown) [Example 88, N-(6-{[5-(4-hydroxybutan-2-yl)-1H-pyrazol-3-yl]amino}-5-methoxy-1,2-benzoxazol-3-yl)-2,6-dimethoxybenzene-1-sulfonamide] | 27 nM | 378 nM | > 13000 nM | 6020 nM |
| COc1cc2c(NS(=O)(=O)c3c(OC)cccc3OC)noc2cc1Nc1cc(Cl)n[nH]1 [Example 92, N-{6-[(3-chloro-1H-pyrazol-5-yl)amino]-5-methoxy-1,2-benzoxazol-3-yl}-2,6-dimethoxybenzene-1-sulfonamide] | 1.3 nM | 219 nM | 2100 nM | 867 nM |
| COc1cc2c(NS(=O)(=O)c3c(OC)cccc3OC)noc2cc1Nc1cc(C2(C)CC2)n[nH]1 [Example 94, 2,6-dimethoxy-N-(5-methoxy-6-{[3-(1-methylcyclopropyl)-1H-pyrazol-5-yl]amino}-1,2-benzoxazol-3-yl)benzene-1-sulfonamide] | 6.3 nM | 58.1 nM | 5740 nM | 193 nM |
| COc1cc2c(NS(=O)(=O)c3cc4ccccc4cc3OC)noc2cc1Nc1cc(C2CC2)n[nH]1 [Example 95, N-{6-[(3-cyclopropyl-1H-pyrazol-5-yl)amino]-5-methoxy-1,2-benzoxazol-3-yl}-3-methoxynaphthalene-2-sulfonamide] | 0.1 nM | 0.3 nM | 77 nM | 18.1 nM |
| COc1cc(F)ccc1S(=O)(=O)Nc1noc2cc(Nc3cc(C4CC4)n[nH]3)c(F)c(OC)c12 [Example 97, N-{6-[(3-cyclopropyl-1H-pyrazol-5-yl)amino]-5-fluoro-4-methoxy-1,2-benzoxazol-3-yl}-4-fluoro-2-methoxybenzene-1-sulfonamide] | 9.8 nM | 57.7 nM | > 13000 nM | 795 nM |
| COc1cccc(OC2CCC2)c1S(=O)(=O)Nc1noc2cc(Nc3cc(C4CC4)n[nH]3)c(F)c(OC)c12 [Example 98, 2-(cyclobutyloxy)-N-{6-[(3-cyclopropyl-1H-pyrazol-5-yl)amino]-5-fluoro-4-methoxy-1,2-benzoxazol-3-yl}-6-methoxybenzene-1-sulfonamide] | 5.7 nM | 74.6 nM | > 13000 nM | 3790 nM |
| COc1cc(F)c(F)cc1S(=O)(=O)Nc1noc2cc(Nc3cc(C4CC4)n[nH]3)c(F)c(OC)c12 [Example 100, N-{6-[(3-cyclopropyl-1H-pyrazol-5-yl)amino]-5-fluoro-4-methoxy-1,2-benzoxazol-3-yl}-4,5-difluoro-2-methoxybenzene-1-sulfonamide] | 21.4 nM | 86.6 nM | > 13000 nM | 1060 nM |
| CCOc1cc(C(F)F)ccc1S(=O)(=O)Nc1noc2cc(Nc3cc(C4CC4)n[nH]3)c(F)c(OC)c12 [Example 101, N-{6-[(3-cyclopropyl-1H-pyrazol-5-yl)amino]-5-fluoro-4-methoxy-1,2-benzoxazol-3-yl}-4-(difluoromethyl)-2-ethoxybenzene-1-sulfonamide] | 5.3 nM | 50.7 nM | 10300 nM | 1230 nM |
| COc1cc2c(NS(=O)(=O)c3c(OC)cccc3OC)noc2cc1Nc1ncccn1 [Example 102, 2,6-dimethoxy-N-{5-methoxy-6-[(pyrimidin-2-yl)amino]-1,2-benzoxazol-3-yl}benzene-1-sulfonamide] | 1.9 nM | 1440 nM | > 19500 nM | 5970 nM |
| COc1cc2c(NS(=O)(=O)c3c(OC)cccc3OC)noc2cc1Nc1cc(C2CC2)n(C)n1 [Example 103, N-{6-[(5-cyclopropyl-1-methyl-1H-pyrazol-3-yl)amino]-5-methoxy-1,2-benzoxazol-3-yl}-2,6-dimethoxybenzene-1-sulfonamide] | 2.8 nM | 47.4 nM | 6010 nM | 254 nM |
| COc1cc2c(NS(=O)(=O)c3c(OC)cccc3OC)noc2cc1Nc1cc(OC)n(C)n1 [Example 104, 2,6-dimethoxy-N-{5-methoxy-6-[(5-methoxy-1-methyl-1H-pyrazol-3-yl)amino]-1,2-benzoxazol-3-yl}benzene-1-sulfonamide] | 5.6 nM | 139 nM | > 10900 nM | 1040 nM |
| COc1cc2c(NS(=O)(=O)c3c(OC)cccc3OC)noc2cc1Nc1nccc(C)n1 [Example 105, 2,6-dimethoxy-N-{5-methoxy-6-[(4-methylpyrimidin-2-yl)amino]-1,2-benzoxazol-3-yl}benzene-1-sulfonamide] | 9.7 nM | 414 nM | > 12700 nM | 4120 nM |
| CCc1ccnc(Nc2cc3onc(NS(=O)(=O)c4c(OC)cccc4OC)c3cc2OC)n1 [Example 106, N-{6-[(4-ethylpyrimidin-2-yl)amino]-5-methoxy-1,2-benzoxazol-3-yl}-2,6-dimethoxybenzene-1-sulfonamide] | 11.7 nM | 410 nM | 6430 nM | 1990 nM |
| CCc1cnc(Nc2cc3onc(NS(=O)(=O)c4c(OC)cccc4OC)c3cc2OC)nc1 [Example 107, N-{6-[(5-ethylpyrimidin-2-yl)amino]-5-methoxy-1,2-benzoxazol-3-yl}-2,6-dimethoxybenzene-1-sulfonamide] | 132 nM | 6540 nM | > 13000 nM | 10400 nM |
| COc1cc2c(NS(=O)(=O)c3c(OC)cccc3OC)noc2cc1Nc1nc(C)cc(C)n1 [Example 108, N-{6-[(4,6-dimethylpyrimidin-2-yl)amino]-5-methoxy-1,2-benzoxazol-3-yl}-2,6-dimethoxybenzene-1-sulfonamide] | 202 nM | 3420 nM | > 13000 nM | 45000 nM |
| COc1cc2c(NS(=O)(=O)c3c(OC)cccc3OC)noc2cc1Nc1ncc(C)cn1 [Example 110, 2,6-dimethoxy-N-{5-methoxy-6-[(5-methylpyrimidin-2-yl)amino]-1,2-benzoxazol-3-yl}benzene-1-sulfonamide] | 44.1 nM | 2820 nM | > 13000 nM | 6610 nM |
| COc1cc2c(NS(=O)(=O)c3c(OC)cccc3OC)noc2cc1Nc1ccccn1 [Example 111, 2,6-dimethoxy-N-{5-methoxy-6-[(pyridin-2-yl)amino]-1,2-benzoxazol-3-yl}benzene-1-sulfonamide] | 0.8 nM | 400 nM | > 13000 nM | 1130 nM |
| COc1cc2c(NS(=O)(=O)c3c(OC)cccc3OC)noc2cc1Nc1cc2n(n1)CCC21CC1 [Example 112, N-{6-[(5′,6′-dihydrospiro[cyclopropane-1,4′-pyrrolo[1,2-b]pyrazol]-2′-yl)amino]-5-methoxy-1,2-benzoxazol-3-yl}-2,6-dimethoxybenzene-1-sulfonamide] | 17.6 nM | 238 nM | > 13000 nM | 689 nM |
| CCn1nc(Nc2cc3onc(NS(=O)(=O)c4c(OC)cccc4OC)c3cc2OC)cc1C1CC1 [Example 113, N-{6-[(5-cyclopropyl-1-ethyl-1H-pyrazol-3-yl)amino]-5-methoxy-1,2-benzoxazol-3-yl}-2,6-dimethoxybenzene-1-sulfonamide] | 348 nM | 9090 nM | > 13000 nM | 50000 nM |
| COc1cc2c(NS(=O)(=O)c3c(OC)cccc3OC)noc2cc1Nc1cc(C(F)F)n[nH]1 [Example 115, N-(6-{[3-(difluoromethyl)-1H-pyrazol-5-yl]amino}-5-methoxy-1,2-benzoxazol-3-yl)-2,6-dimethoxybenzene-1-sulfonamide] | 0.1 nM | 32.2 nM | 8920 nM | 101 nM |
| COc1cc2c(NS(=O)(=O)c3c(OC)cccc3OC)noc2cc1Nc1cc(C(C)(C)C)n[nH]1 [Example 116, N-{6-[(3-tert-butyl-1H-pyrazol-5-yl)amino]-5-methoxy-1,2-benzoxazol-3-yl}-2,6-dimethoxybenzene-1-sulfonamide] | 11.8 nM | 98 nM | 7900 nM | 546 nM |
| COc1cc2c(NS(=O)(=O)c3c(OC)cccc3OC)noc2cc1Nc1cc(C2CC(F)(F)C2)[nH]n1 [Example 117, N-(6-{[5-(3,3-difluorocyclobutyl)-1H-pyrazol-3-yl]amino}-5-methoxy-1,2-benzoxazol-3-yl)-2,6-dimethoxybenzene-1-sulfonamide] | 5.3 nM | 25.1 nM | 10000 nM | 360 nM |
| COc1cc2c(NS(=O)(=O)c3c(OC)cc(-c4ccccn4)cc3OC)noc2cc1Nc1cc(C2CC2)n[nH]1 [Example 118, N-{6-[(3-cyclopropyl-1H-pyrazol-5-yl)amino]-5-methoxy-1,2-benzoxazol-3-yl}-2,6-dimethoxy-4-(pyridin-2-yl)benzene-1-sulfonamide] | 0.9 nM | 8.1 nM | 731 nM | 66.1 nM |
| COc1cc2c(NS(=O)(=O)c3c(OC)cc(-c4ccccc4)cc3OC)noc2cc1Nc1cc(C2CC2)n[nH]1 [Example 119, N-{6-[(3-cyclopropyl-1H-pyrazol-5-yl)amino]-5-methoxy-1,2-benzoxazol-3-yl}-3,5-dimethoxy[1,1′-biphenyl]-4-sulfonamide] | 0.2 nM | 3.6 nM | 156 nM | 19.4 nM |
| COc1cc2c(NS(=O)(=O)c3c(OC)cc(-c4ccncc4)cc3OC)noc2cc1Nc1cc(C2CC2)n[nH]1 [Example 120, N-{6-[(3-cyclopropyl-1H-pyrazol-5-yl)amino]-5-methoxy-1,2-benzoxazol-3-yl}-2,6-dimethoxy-4-(pyridin-4-yl)benzene-1-sulfonamide] | 0.8 nM | 10.8 nM | 640 nM | 236 nM |

From US20250122183A1 (Pfizer Inc., priority 2023, published 2025)
